From EP4624466A1, “DEGRADER FOR DECOMPOSING CMET PROTEIN, AND PHARMACEUTICAL COMPOSITION COMPRISING SAME” (Innocure Therapeutics, Inc., priority 2022, dated 2024)
Where two headings read alike, the source gives them in different places.

Assays:
c-MET = c-MET (Homo sapiens, UniProt P08581); experiment: c-MET protein degradation (Simple Western), MKN-45; assay type: cell-based; parameters: assess the resolution of the compound of the present invention for c-MET expressed in cells; endogenous in cells; host or cells: MKN45 (human gastric cancer); settings: c-MET overexpressing gastric cancer cell line MKN-45, treated 24 hours; Table 2
c-MET, sequence (P08581 25-1390): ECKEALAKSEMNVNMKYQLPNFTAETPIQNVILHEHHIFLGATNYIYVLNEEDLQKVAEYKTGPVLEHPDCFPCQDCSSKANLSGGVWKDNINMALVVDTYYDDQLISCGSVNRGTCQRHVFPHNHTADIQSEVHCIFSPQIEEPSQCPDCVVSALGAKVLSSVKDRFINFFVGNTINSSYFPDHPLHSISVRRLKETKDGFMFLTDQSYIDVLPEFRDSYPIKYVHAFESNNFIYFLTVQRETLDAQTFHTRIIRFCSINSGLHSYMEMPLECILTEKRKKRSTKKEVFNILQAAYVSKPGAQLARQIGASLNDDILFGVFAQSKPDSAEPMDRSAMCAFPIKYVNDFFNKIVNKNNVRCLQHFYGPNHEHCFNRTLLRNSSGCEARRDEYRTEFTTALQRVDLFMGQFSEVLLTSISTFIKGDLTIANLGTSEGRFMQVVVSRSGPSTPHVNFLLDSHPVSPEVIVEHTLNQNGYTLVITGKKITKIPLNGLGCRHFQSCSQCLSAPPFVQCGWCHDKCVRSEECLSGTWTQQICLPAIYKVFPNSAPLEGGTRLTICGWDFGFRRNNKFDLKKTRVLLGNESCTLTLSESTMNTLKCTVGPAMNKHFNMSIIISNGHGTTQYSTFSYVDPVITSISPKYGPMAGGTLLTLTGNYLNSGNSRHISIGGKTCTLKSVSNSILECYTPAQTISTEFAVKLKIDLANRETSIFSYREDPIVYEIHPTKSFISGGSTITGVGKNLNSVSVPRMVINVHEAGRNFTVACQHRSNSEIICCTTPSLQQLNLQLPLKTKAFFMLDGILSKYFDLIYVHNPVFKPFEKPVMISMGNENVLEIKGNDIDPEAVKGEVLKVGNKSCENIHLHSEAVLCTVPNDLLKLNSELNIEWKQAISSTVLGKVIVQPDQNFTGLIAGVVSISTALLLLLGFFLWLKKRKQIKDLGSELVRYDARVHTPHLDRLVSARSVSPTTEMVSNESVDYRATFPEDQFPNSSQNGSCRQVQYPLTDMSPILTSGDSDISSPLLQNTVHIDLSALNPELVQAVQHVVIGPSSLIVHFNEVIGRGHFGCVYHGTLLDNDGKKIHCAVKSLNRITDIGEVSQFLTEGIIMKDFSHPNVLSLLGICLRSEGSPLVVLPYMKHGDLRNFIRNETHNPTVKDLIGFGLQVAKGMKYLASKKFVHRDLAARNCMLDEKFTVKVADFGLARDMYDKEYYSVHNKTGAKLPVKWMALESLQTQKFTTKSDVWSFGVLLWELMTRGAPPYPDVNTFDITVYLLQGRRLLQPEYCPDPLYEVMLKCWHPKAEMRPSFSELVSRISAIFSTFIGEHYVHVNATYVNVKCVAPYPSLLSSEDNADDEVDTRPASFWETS
Experimental: In order to assess the resolution of the compound of the present invention for c-MET expressed in cells, cells were dispensed in a 12-well plate at a concentration of 2 × 10^5 cells/well, and then gastric cancer cell lines were treated with samples for 24 hours and lung cancer cell lines were treated for 48 hours. Cell lysates were collected using a scraper on ice, centrifuged at 4°C15,000 rpm for 30 min to obtain a protein-containing supernatant. Protein expression was then measured using the Simple Western Automated Western Blot System Abby instrument using 3 µg of protein for each sample. SDS and heat-induced denaturation proteins were separated by molecular weight, attached to capillary, reacted with anti-c-MET or anti-GAPDH antibodies, which are primary antibodies, and then reacted with HRP-conjugated secondary antibodies, and analyzed the protein expression signal with compass software. Protein expression was normalized based on the expression value of GAPDH, and protein development in each sample was measured as a percentage (%) based on 100% of samples treated with 0.1% DMSO carriers, and DC50 (concentration of a compound where 50% protein inhibition is achieved) was calculated from the change in protein expression amount due to compound treatment.

MKN-45 = experiment: Cell viability / antiproliferative assay (WST-8), MKN-45; settings: read-out: MKN-45 IC50;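 also: MKN-45 is a human gastric cancer line overexpressing c-MET, growth inhibition read as WST-8 formazan absorbance at 450 nm after 2 h dye incubation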
Experimental: c-MET overexpressing human gastric cancer cell lines [MKN45] and [SNU638] were cultured in RPMI medium with 10% fetal bovine serum, penicillin (100U/ml), and streptomycin (100mg/ml), and c-MET exon 14 skipping mutant human gastric cancer cell lines [Hs746T] were cultured in DMEM media. The c-MET overexpressing human lung cancer cell line EBC-1 was cultured in MEM media with the addition of 10% fetal bovine serum, penicillin (100U/ml), and streptomycin (100mg/ml). […] The compound synthesized in accordance with the present invention was prepared with a raw material solution of 10 mM dissolved in DMSO (dimethyl sulfoxide), and was sequentially diluted and processed.
In order to observe the inhibitory activity on cell growth, cells were dispensed in a 96-well plate at a concentration of 5,000 cells/well, and then treated with the compound prepared at various concentrations for 72 hours. The viability of the cells was calculated using GraphicPad Prism 8.0 software by adding 10 ml per well of WST-8 (water soluble tetrazolium salt) sample, which reacts with dehydrogenase present in the electron transport system of mitochondria to produce formazon, incubated for 2 hours, and measured absorbance at 450 nm.

[1] = MKN-45 cells, 72 hours, WST-8, Table 2
[2] = MKN-45 cells, 72 hours, WST-8, Table 1

SMILES | DC50 (c-MET) | IC50 (MKN-45; Homo sapiens, MKN-45, 72 h) | IC50 (MKN-45; [1]) | IC50 (MKN-45; [2])
Cc1nn(C2CCC(=O)NC2=O)c(=O)c2cc(N3CCN(C(=O)CCCCN4CCC(COc5cnc(-c6cccc(Cn7nc(-c8cccc(C#N)c8)ccc7=O)c6)nc5)CC4)CC3)ccc12 (centres unmarked) [ICT-0001251] | < 100 nM | < 100 nM |  | 
Cc1nn(C2CCC(=O)NC2=O)c(=O)c2ccc(NCCOCCOCCOCCOCCC(=O)N3CCC(COc4cnc(-c5cccc(Cn6nc(-c7cccc(C#N)c7)ccc6=O)c5)nc4)CC3)cc12 (centres unmarked) [ICT-0001091] | < 100 nM | < 100 nM |  | 
Cn1cc(-c2cnc3c(nnn3C[C@@H]3CN(c4ncc(-c5ccc(CN6CCN(C(=O)CCOCCOCCNc7cccc8cnn(C9CCC(=O)NC9=O)c(=O)c78)CC6)cc5)cn4)CCO3)n2)cn1 (some centres unmarked) [ICT-0000940] |  | 100 to 1000 nM |  | 
N#Cc1cccc(-c2ccc(=O)n(Cc3cccc(-c4ncc(OCC5CCN(CCCCC(=O)N6CCN(c7ccc8c(=O)n(C9CCC(=O)NC9=O)ncc8c7)CC6)CC5)cn4)c3)n2)c1 (centres unmarked) [ICT-0001252] | < 100 nM | < 100 nM |  | 
N#Cc1cccc(-c2ccc(=O)n(Cc3cccc(-c4ncc(OCC5CCN(C(=O)COCCOCCOCCOCCNc6ccc7c(=O)n(C8CCC(=O)NC8=O)ncc7c6)CC5)cn4)c3)n2)c1 (centres unmarked) [ICT-0000988, 3-(1-{[3-(5-{[1-(14-{[2-(2,6-dioxopiperidin-3-yl)-1-oxo-1,2-dihydroptalazine-6-yl]amino}-3,6,9,12-tetradecanoyl)piperidin-4-yl]methoxy}pyrimidine-2-yl)phenyl]methyl}-6-oxo-1,6-dihydropyridazine-3-yl)benzonitrile] | < 100 nM | 100 to 1000 nM |  | 
N#Cc1cccc(-c2ccc(=O)n(Cc3cccc(-c4ncc(OCC5CCN(C(=O)CCCCN6CCN(c7ccc8c(=O)n(C9CCC(=O)NC9=O)ncc8c7)CC6)CC5)cn4)c3)n2)c1 (centres unmarked) [ICT-0001201, 3-(1-{[3-(5-{[1-(5-{4-[2-(2,6-dioxopiperidin-3-yl)-1-oxo-1,2-dihydropetalazine-6-yl]piperazine-1-yl}pentanoyl)piperidine-4-il]methoxy}pyrimidine-2-yl)phenyl]methyl}6-oxo-1,6-dihydropyridazine-3-yl)benzonitrile] | < 100 nM | < 100 nM |  | 
Cc1nn(C2CCC(=O)NC2=O)c(=O)c2cc(N3CCN(CC(=O)N4CCC(COc5cnc(-c6cccc(Cn7nc(-c8cccc(C#N)c8)ccc7=O)c6)nc5)CC4)CC3)ccc12 (centres unmarked) [ICT-0001214, 3-(1-(3-(5-((1-(2-(4-(3-(2,6-dioxopiperidin-3-yl)-1-methyl-4-oxo-3,4-dihydropetalazine-6-yl)piperazine-1-il)acetyl)piperidine-4-il)methoxy)pyrimidine-2-yl)benzyl)6-oxo-1,6-dihydropyridazine-3-yl)benzonitrile] | < 100 nM |  | < 100 nM | 
N#Cc1cccc(-c2ccc(=O)n(Cc3cccc(-c4ncc(OCC5CCN(CC(=O)N6CCN(c7ccc8c(=O)n(C9CCC(=O)NC9=O)ncc8c7)CC6)CC5)cn4)c3)n2)c1 (centres unmarked) [ICT-0001221] | < 100 nM | < 100 nM |  | 
Cc1nn(C2CCC(=O)NC2=O)c(=O)c2ccc(N3CCN(c4ccc(NCC(=O)N5CCC(COc6cnc(-c7cccc(Cn8nc(-c9cccc(C#N)c9)ccc8=O)c7)nc6)CC5)cc4)CC3)cc12 (centres unmarked) [ICT-0001240, 3-(1-(3-(5-((1-((4-(4-(2-(2,6-dioxopiperidin-3-yl)-4-methyl-1-oxo-1,2-dihydropthalazine-6-yl)piperazine-1-yl)phenyl)glycyl)piperidine-4-il)methoxy)pyrimidine-2-yl)benzyl)6-oxo-1,6-dihydropyridazine-3-yl)benzonitrile] |  | < 100 nM |  | 
Cc1nn(C2CCC(=O)NC2=O)c(=O)c2ccc(N3CCN(C[C@H]4CCN(CC(=O)N5CCC(COc6cnc(-c7cccc(Cn8nc(-c9cccc(C#N)c9)ccc8=O)c7)nc6)CC5)CO4)CC3)cc12 (some centres unmarked) [ICT-0001254] | 100 to 1000 nM |  | < 100 nM | 
Cc1nn(C2CCC(=O)NC2=O)c(=O)c2cc(F)c(N3CCN(CC4CCN(CC(=O)N5CCC(COc6cnc(-c7cccc(Cn8nc(-c9cccc(C#N)c9)ccc8=O)c7)nc6)CC5)CC4)CC3)cc12 (centres unmarked) [ICT-0001272] | < 100 nM | < 100 nM |  | 
Cn1cc(-c2cnc3c(nnn3C[C@@H]3CN(c4ncc(-c5ccc(CN6CCN(C(=O)COCCOCCOCCOCCOCCNc7cccc8cnn(C9CCC(=O)NC9=O)c(=O)c78)CC6)cc5)cn4)CCO3)n2)cn1 (stereo partly drawn) [ICT-0000967, 3-(8-((17-(4-(4-(2-((S)-2-((5-(1-methyl-1H-pyrazole-4-yl)-1H-[1,2,3]triazolo[4,5-b]pyrazine-1-yl)methyl)morpholino)pyrimidine-5-yl)benzyl)piperazine-1-yl)17-oxo-3,6,9,12,15-pentaheptacel)amino)-1-oxopthalazine-2(1H)-yl)piperidine-2,6-dione] |  |  |  | 100 to 1000 nM
Cn1cc(-c2cnc3c(nnn3C[C@@H]3CN(c4ncc(-c5ccc(CN6CCN(C(=O)COCCOCCOCCNc7cccc8cnn(C9CCC(=O)NC9=O)c(=O)c78)CC6)cc5)cn4)CCO3)n2)cn1 (stereo partly drawn) [ICT-0000942, 3-[8-(12-{4-[(4-{2-[(2S)-2-{[5-(1-methyl-1H-pyrazole-4-yl)-1H-[1,2,3]triazolo[4,5-b]pyrazine-1-yl]methyl}morpholine-4-day]pyrimidine-5-yl}phenyl)methyl]piperazine-1-il}-12-oxo-4,7,10-trioxa-1-azadodecane-1-yl)-1-oxo-1,2-dihydroptalazine-2-yl]piperidine-2,6-dione] |  |  |  | < 100 nM
N#Cc1cccc(-c2ccc(=O)n(Cc3cccc(-c4ncc(OCC5CCN(C(=O)COCCOCCOCCNc6ccc7c(=O)n(C8CCC(=O)NC8=O)ncc7c6)CC5)cn4)c3)n2)c1 (centres unmarked) [ICT-0000987] | 100 to 1000 nM |  | < 100 nM | 
N#Cc1cccc(-c2ccc(=O)n(Cc3cccc(-c4ncc(OCC5CCN(C(=O)CCCN6CCN(c7ccc8c(=O)n(C9CCC(=O)NC9=O)ncc8c7)CC6)CC5)cn4)c3)n2)c1 (centres unmarked) [ICT-0001200] | < 100 nM | < 100 nM |  | 
Cn1cc(-c2cnc3c(nnn3C[C@@H]3CN(c4ncc(-c5ccc(CN6CCN(C(=O)CCOCCOCCOCCOCCNc7cccc8cnn(C9CCC(=O)NC9=O)c(=O)c78)CC6)cc5)cn4)CCO3)n2)cn1 (stereo partly drawn) [ICT-0000946, 3-[8-(16-{4-[(4-{2-[(2S)-2-{[5-(1-methyl-1H-pyrazole-4-yl)-1H-[1,2,3]triazolo[4,5-b]pyrazine-1-yl]methyl}morpholine-4-day]pyrimidine-5-yl}phenyl)methyl]piperazine-1-yl}-16-oxo-4,7,10,13-tetraoxa-1-azahexadecane-1-yl)-1-oxo-1,2-dihydroptalazine-2-yl]piperidine-2,6-dione] |  |  |  | 100 to 1000 nM
N#Cc1cccc(-c2ccc(=O)n(Cc3cccc(-c4ncc(OCC5CCN(C(=O)CCOCCOCCOCCOCCNc6cccc7cnn(C8CCC(=O)NC8=O)c(=O)c67)CC5)cn4)c3)n2)c1 (centres unmarked) [ICT-0000907] |  | < 100 nM |  | 
Cc1nn(C2CCC(=O)NC2=O)c(=O)c2cc(N3CCC(C(=O)NCCCNC(=O)CN4CCC(COc5cnc(-c6cccc(Cn7nc(-c8cccc(C#N)c8)ccc7=O)c6)nc5)CC4)CC3)ccc12 (centres unmarked) [ICT-0001238] | > 1000 nM |  |  | 
Cn1cc(-c2cnc3c(nnn3C[C@@H]3CN(c4ncc(-c5ccc(CN6CCN(C(=O)CCCCCNc7cccc8cnn(C9CCC(=O)NC9=O)c(=O)c78)CC6)cc5)cn4)CCO3)n2)cn1 (stereo partly drawn) [ICT-0000970, 3-(8-((6-(4-(4-(2-((S)-2-((5-(1-methyl-1H-pyrazole-4-yl)-1H-[1,2,3]triazolo[4,5-b]pyrazine-1-yl)methyl)morpholino)pyrimidine-5-yl)benzyl)piperazine-1-yl)6-oxohexyl)amino)1-oxopthalazine-2(1H)-yl)piperidine-2,6-dione] |  |  |  | < 100 nM
Cc1nn(C2CCC(=O)NC2=O)c(=O)c2ccc(N3CCN(CC4CCN(CC(=O)N5CCC(COc6cnc(-c7cccc(Cn8nc(-c9cccc(C#N)c9)ccc8=O)c7)nc6)CC5)CC4)CC3)cc12 (centres unmarked) [ICT-0001256] | < 100 nM |  |  | 
Cn1cc(-c2cnc3c(nnn3C[C@@H]3CN(c4ncc(-c5ccc(CN6CCN(C(=O)CCOCCOCCOCCOCCOCCOCCNc7cccc8cnn(C9CCC(=O)NC9=O)c(=O)c78)CC6)cc5)cn4)CCO3)n2)cn1 (some centres unmarked) [ICT-0000968] |  |  |  | 100 to 1000 nM
N#Cc1cccc(-c2ccc(=O)n(Cc3cccc(-c4ncc(OCC5CCN(C(=O)CCCCCNc6ccc7c(=O)n(C8CCC(=O)NC8=O)ncc7c6)CC5)cn4)c3)n2)c1 (centres unmarked) [ICT-0000984, 3-(1-{[3-(5-{[1-(6-{[2-(2,6-dioxopiperidin-3-yl)-1-oxo-1,2-dihydropthalazine-6-yl]amino}hexanoyl)piperidine-4-il]methoxy}pyrimidine-2-yl)phenyl]methyl}-6-oxo-1,6-dihydropyridazine-3-yl)benzonitrile] |  | < 100 nM |  | 
Cc1nn(C2CCC(=O)NC2=O)c(=O)c2ccc(NCCCC(=O)N3CCC(COc4cnc(-c5cccc(Cn6nc(-c7cccc(C#N)c7)ccc6=O)c5)nc4)CC3)cc12 (centres unmarked) [ICT-0000989] |  | < 100 nM |  | 
Cc1nn(C2CCC(=O)NC2=O)c(=O)c2cc(N3CCN(C(=O)CN4CCC(COc5cnc(-c6cccc(Cn7nc(-c8cccc(C#N)c8)ccc7=O)c6)nc5)CC4)CC3)ccc12 (centres unmarked) [ICT-0001115, 3-(1-(3-(5-((1-(2-(4-(3-(2,6-dioxopiperidin-3-yl)-1-methyl-4-oxo-3,4-dihydropetalazine-6-yl)piperazine-1-yl)2-oxoethyl)piperidine-4-il)methoxy)pyrimidine-2-yl)benzyl)6-oxo-1,6-dihydropyridazine-3-yl)benzonitrile] | < 100 nM |  |  | 
